Inhibition data for 39 compounds are collected here from patent US5470833A, “Endothelin antagonistic peptide derivatives” (Banyu Pharmaceutical Co., Ltd., priority 1990, dated 1995).

Read-outs that look alike come from different tables or passages of the source. Numbered stars: 1 amine (or outer) side, 2 acyl side, 3 side chain; on linkers, the order of the positions; unused ones are H or OH. Square brackets hold non-standard residues; d marks the D form. Peptide text beside a SMILES is read from it. * marks the point of attachment. d(β3hW) = N[C@@H](CC(=O)O)Cc1c[nH]c2ccccc12; NMeL = CN[C@@H](CC(C)C)C(=O)O; PhAc = O=C(Cc1ccccc1)*; Boc = CC(C)(C)OC(=O)*; CO = O=C([*:1])[*:2]; OBn = c1ccc(CO*)cc1; Ahx = NCCCCCC(=O)O; Dha = C=C(N)C(=O)O; NHtBu = CC(C)(C)N*; Bn = c1ccc(C*)cc1; βAla = NCCC(=O)O; NEt2 = CCN(CC)*; NHiPr = CC(C)N*

A word on the inhibition: it is how much of the control response was suppressed.

The target in the experiment is T1, endothelin receptor (membrane of smooth muscle tissue of porcine aorta) (Sus scrofa, UniProt Q29010).
T1 construct: from tissue; host or cells: porcine aorta smooth muscle, membrane fraction
T1 sequence (Q29010 21-427): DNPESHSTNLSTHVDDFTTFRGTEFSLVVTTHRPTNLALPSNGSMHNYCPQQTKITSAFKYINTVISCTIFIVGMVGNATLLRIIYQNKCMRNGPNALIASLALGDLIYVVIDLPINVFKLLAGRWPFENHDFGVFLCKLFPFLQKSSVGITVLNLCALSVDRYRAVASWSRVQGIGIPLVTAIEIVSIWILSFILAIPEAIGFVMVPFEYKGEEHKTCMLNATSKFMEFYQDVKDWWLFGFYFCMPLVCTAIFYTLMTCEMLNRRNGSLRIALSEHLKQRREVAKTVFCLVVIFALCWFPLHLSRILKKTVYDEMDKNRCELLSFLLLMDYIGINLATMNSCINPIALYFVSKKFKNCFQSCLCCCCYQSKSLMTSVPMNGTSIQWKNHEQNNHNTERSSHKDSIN
The experiment in a line: Endothelin binding inhibition test (125I-endothelin-1, porcine aorta smooth muscle membrane). Particulars: read-out: 125I-endothelin-1 binding inhibition. The protocol:
The smooth muscle tissue of porcine aorta was homogenized in a buffer solution of 10 mM MOPS, pH 7.4, at 4° C. by a polytron. To the homogenate, sucrose was added to a concentration of 20%, and the mixture was centrifuged at 1,000×g for 15 minutes, and the supernatant was further centrifuged at 10,000×g for 15 minutes. The supernatant thereof was further centrifuged at 90,000×g for 40 minutes. The membrane precipitate thereby obtained was suspended in a buffer solution of 5 mM HEPES/Tris, pH 7.4, at a concentration of 25 mg/ml.
Then, 16 μl of this membrane suspension was added to 340 μl of 50 mM Tris/HCl buffer, pH 7.4, containing 10 μM calcium chloride, 10 μM magnesium chloride, 0.1 mM PMSF, 1 μM pepstatin A, 2 μM leupeptin, 1 mM 1,10-phenanthroline and 0.1% bovine serum albumin. To this suspension, 4 μl of (A) endothelin-1 (for nonspecific binding; 0.2 μM as the final concentration), (B) buffer solution A (for total control binding), or (C) a test compound (1.1 μM or 10 μM as the final concentration),was added. Further, to each suspension, 40 μl of ^125 I-endothelin-1 (12000-18000 cpm) was added. These mixtures were incubated at 25° C. for 4 hours, then subjected to filtration on a glass filter GF/C and then washed with 5 mM HEPES/Tris, pH 7.4, containing 0.3% bovine serum albumin. Then, the radioactivity trapped by the glass filter was measured, and the ^125 I-endothelin-1 binding inhibition D (%) at 1.1 μM or 10 μM of the test compound was determined by the following equation. [formula] Each test was performed in triplicate.
The test compounds are indicated by Compound Nos.

On to `CC(C)C[C@H](NC(=O)OC(C)(C)C)C(=O)N[C@H](Cc1c[nH]c2ccccc12)C(=O)NCC(=O)O` [Compound 31] (Boc-Leu-[dW]-Gly-OH), for which, for the setting “1.1 μM test compound (no mark)”, the inhibition at 1.1 µM worked out at 45%.
The same measure, in the same setting: the figure for `CC(C)C[C@H](NC(=O)N(C(C)C)C(C)C)C(=O)N[C@H](Cc1c[nH]c2ccccc12)C(=O)NCCC(=O)O` [Compound 119] is 81%; for `CC(C)C[C@H](NC(=O)N1CCCCCC1)C(=O)N[C@H](Cc1c[nH]c2ccccc12)C(=O)N[C@H](C)CS(=O)(=O)O` [Compound 160] it is 86%.
The same measure, in the same setting: the figure for `CC(C)C[C@H](NC(=O)N1CCCCCC1)C(=O)N[C@H](Cc1c[nH]c2ccccc12)C(=O)NN1CCC[C@@H]1C(=O)O` [Compound 163] is 76%; for `CCOC(=O)CCNC(=O)[C@@H](Cc1c[nH]c2ccccc12)NC(=O)[C@H](CC(C)C)NC(=O)N1CCCCCC1` [Compound 92] it is 40%.
Turning to `CC(C)C[C@H](NC(=S)Nc1ccccc1)C(=O)N[C@H](Cc1c[nH]c2ccccc12)C(=O)NCC(=O)O` [Compound 91], the inhibition at 10 µM (10 μM test compound (marked *)) worked out at 51%.
With `CC(C)C[C@H](NC(=O)Cc1ccccc1)C(=O)N[C@H](Cc1c[nH]c2ccccc12)C(=O)NCCC(=O)O` [Compound 70] (PhAc-Leu-[dW]-[βAla]-OH), the inhibition at 1.1 µM (1.1 μM test compound (no mark)) is 32%.
With `CC(C)C[C@H](NC(=O)NN1CCCC1)C(=O)N[C@H](Cc1c[nH]c2ccccc12)C(=O)NCCC(=O)O` [Compound 152], the inhibition at 10 µM (10 μM test compound (marked *)) was determined as 58%.
For `CC(C)C[C@H](NC(=O)OC(C)(C)C)C(=O)N[C@H](Cc1c[nH]c2ccccc12)C(=O)N[C@H](Cc1ccc(OCc2ccccc2)cc1)C(=O)O` [Compound 137] (Boc-Leu-[dW]-[dY](Bn)-OH), where the note is “1.1 μM test compound (no mark)”, the inhibition at 1.1 µM was 46%.
Same read-out and setting: the figure for `CNC(=O)CCNC(=O)[C@@H](Cc1c[nH]c2ccccc12)NC(=O)[C@H](CC(C)C)NC(=O)N1CCCCCC1` [Compound 134] is 32%.
Turning to `CC(C)C[C@H](NC(=O)OC(C)(C)C)C(=O)N[C@H](Cc1c[nH]c2ccccc12)C(=O)N[C@@H](CC(=O)O)Cc1c[nH]c2ccccc12` [Compound 19] (Boc-Leu-[dW]-[d(β3hW)]-OH), the inhibition at 10 µM was determined as 53%.
As for `COC(=O)C(C(=O)N[C@@H](CC(C)C)C(=O)N[C@H](Cc1c[nH]c2ccccc12)C(=O)NCCC(=O)O)=C1SC=CS1` [Compound 66], where the note is “1.1 μM test compound (no mark)”, the inhibition at 1.1 µM was 77%.
Regarding `Cc1nc[nH]c1CSC[C@@H](NC(=O)[C@@H](Cc1c[nH]c2ccccc12)NC(=O)[C@H](CC(C)C)NC(=O)OC(C)(C)C)C(=O)O` [Compound 22], where the note is “10 μM test compound (marked *)”, the inhibition at 10 µM is 36%.
Same read-out and setting: the figure for `CC(C)C[C@H](NC(=O)OC(C)(C)C)C(=O)N[C@H](Cc1c[nH]c2ccccc12)C(=O)N[C@H](CC(N)=O)C(=O)O` [Compound 9] (Boc-Leu-[dW]-[dN]-OH) is 55%.
In the case of `CC(C)C[C@H](NC(=O)N(C)C)C(=O)N[C@H](Cc1c[nH]c2ccccc12)C(=O)NCCC(=O)O` [Compound 73] ({NMe2-CO}-Leu-[dW]-[βAla]-OH), under “10 μM test compound (marked *)”, the inhibition at 10 µM came to 61%.
As for `CC(C)C[C@H](OC(=O)C1CCCCCC1)C(=O)N[C@H](Cc1c[nH]c2ccccc12)C(=O)N[C@H](Cc1c[nH]c2ccccc12)C(=O)O` [Compound 201], the inhibition at 1.1 µM came to 69%.
`CC(C)C[C@H](NC(=O)NC(C)(C)C)C(=O)N[C@H](Cc1c[nH]c2ccccc12)C(=O)NCCC(=O)O` [Compound 85] ({NHtBu-CO}-Leu-[dW]-[βAla]-OH): the inhibition at 1.1 µM (1.1 μM test compound (no mark)) is 77%.
The same measure, in the same setting: in the case of `CCN(CC)C(=O)N[C@@H](CC(C)C)C(=O)N[C@H](Cc1c[nH]c2ccccc12)C(=O)NCCC(=O)O` [Compound 77] ({NEt2-CO}-Leu-[dW]-[βAla]-OH) it was 47%; in that of `CC(C)C[C@H](NC(=O)N1CCCCCC1)C(=O)N[C@H](Cc1cn(C=O)c2ccccc12)C(=O)N[C@H](C)CS(=O)(=O)O` [Compound 162], 86%.
In the case of `CC(C)C[C@H](NC(=O)OC(C)(C)C)C(=O)N[C@H](Cc1c[nH]c2ccccc12)C(=O)NCCCCCC(=O)O` [Compound 6] (Boc-Leu-[dW]-[Ahx]-OH), the inhibition at 10 µM (10 μM test compound (marked *)) is 37%.
Regarding `CC(C)C[C@H](NC(=O)OC(C)(C)C)C(=O)N[C@H](Cc1c[nH]c2ccccc12)C(=O)N[C@@H](CC(=O)O)C(N)=O` [Compound 38] (Boc-Leu-[dW]-Asp-NH2), under “1.1 μM test compound (no mark)”, the inhibition at 1.1 µM is 22%.
Same read-out and setting: the figure for `CC(C)C[C@H](NC(=O)NC(C)(C)C)C(=O)N[C@H](Cc1c[nH]c2ccccc12)C(=O)N[C@H](Cc1c[nH]cn1)C(=O)O` [Compound 82] ({NHtBu-CO}-Leu-[dW]-[dH]-OH) is 76%.
On the same count and under the same terms, in the case of `CC(C)C[C@H](NC(=O)OC(C)(C)C)C(=O)N[C@H](Cc1c[nH]c2ccccc12)C(=O)N[C@H](Cc1ccccc1)C(=O)O` [Compound 39] (Boc-Leu-[dW]-[dF]-OH) it was 75%.
Consider `COC(=O)[C@@H](Cc1c[nH]cn1)NC(=O)[C@@H](Cc1c[nH]c2ccccc12)NC(=O)[C@H](CC(C)C)NC(=O)N1CCCCCC1` [Compound 47], for which, where the note is “1.1 μM test compound (no mark)”, the inhibition at 1.1 µM turned out to be 75%.
The same measure, in the same setting: the figure for `CC(C)C[C@H](NC(=O)NC(C)(C)C)C(=O)N[C@H](Cc1c[nH]c2ccccc12)C(=O)N[C@H](Cc1c[nH]c2ccccc12)C(=O)O` [Compound 81] ({NHtBu-CO}-Leu-[dW]-[dW]-OH) is 84%.
Turning to `COC(CNC(=O)[C@@H](Cc1c[nH]c2ccccc12)NC(=O)[C@H](CC(C)C)NC(=O)OC(C)(C)C)C(=O)O` (stereo partly drawn) [Compound 146], the inhibition at 10 µM (10 μM test compound (marked *)) was found to be 70%.
With `CC(C)C[C@H](NC(=O)N1CCCCCC1)C(=O)N[C@H](Cc1c[nH]c2ccccc12)C(=O)NCCS(=O)(=O)O` [Compound 53], the inhibition at 1.1 µM (1.1 μM test compound (no mark)) amounted to 86%.
With `C=C(NC(=O)[C@@H](Cc1c[nH]c2ccccc12)NC(=O)[C@H](CC(C)C)NC(=O)OC(C)(C)C)C(=O)O` [Compound 133] (Boc-Leu-[dW]-[Dha]-OH), the inhibition at 1.1 µM (1.1 μM test compound (no mark)) amounted to 41%.
For `CC(C)C[C@H](NC(=O)OC(C)(C)C)C(=O)N[C@H](Cc1c[nH]c2ccccc12)C(=O)N[C@@H](CC(=O)OCc1ccccc1)C(N)=O` [Compound 37] (Boc-Leu-[dW]-Asp(OBn)-NH2), the inhibition at 10 µM (10 μM test compound (marked *)) is 29%.
Turning to `CC(C)C[C@H](NC(=O)N1CCCCCC1)C(=O)N[C@H](Cc1cn(C=O)c2ccccc12)C(=O)NCCS(=O)(=O)O` [Compound 161], under “1.1 μM test compound (no mark)”, the inhibition at 1.1 µM worked out at 84%.
Same read-out and setting: the figure for `CC(C)C[C@H](NC(=O)N1CCCCCC1)C(=O)N[C@H](Cc1c[nH]c2ccccc12)C(=O)N[C@H](C)CC(=O)O` [Compound 52] is 84%.
For `CC(C)C[C@@H](C(=O)N[C@H](Cc1c[nH]c2ccccc12)C(=O)NCCC(=O)O)N(C)C(=O)OC(C)(C)C` [Compound 30] (Boc-[NMeL]-[dW]-[βAla]-OH), for the setting “1.1 μM test compound (no mark)”, the inhibition at 1.1 µM was 44%.
The same measure, in the same setting: in the case of `CC(C)C[C@H](NC(=O)OC(C)(C)C)C(=O)N[C@H](Cc1c[nH]c2ccccc12)C(=O)N[C@H](CO)C(=O)O` [Compound 7] (Boc-Leu-[dW]-[dS]-OH) it was 35%.
In the case of `CC(C)C[C@H](NC(=O)CC(C)(C)C)C(=O)N[C@H](Cc1c[nH]c2ccccc12)C(=O)NCCC(=O)O` [Compound 68], the inhibition at 10 µM (10 μM test compound (marked *)) amounted to 58%.
`CC(C)C[C@H](NC(=O)NC12CC3CC(CC(C3)C1)C2)C(=O)N[C@H](Cc1c[nH]c2ccccc12)C(=O)NCCC(=O)O` [Compound 113]: the inhibition at 1.1 µM (1.1 μM test compound (no mark)) was 69%.
With `CC(C)C[C@H](NC(=O)NC(C)C)C(=O)N[C@H](Cc1c[nH]c2ccccc12)C(=O)NCC(=O)O` [Compound 89] ({NHiPr-CO}-Leu-[dW]-Gly-OH), under “10 μM test compound (marked *)”, the inhibition at 10 µM worked out at 55%.
Same read-out and setting: in the case of `CC(C)C[C@H](NC(=O)OC(C)(C)C)C(=O)N[C@H](Cc1c[nH]c2ccccc12)C(=O)N[C@@H](C(=O)O)C(C)C` [Compound 43] (Boc-Leu-[dW]-[dV]-OH) it was 36%.
For `CC(C)C[C@H](NC(=O)OC(C)(C)C)C(=O)N[C@H](Cc1c[nH]c2ccccc12)C(=O)N[C@H](CCC(N)=O)C(=O)O` [Compound 10] (Boc-Leu-[dW]-[dQ]-OH), under “1.1 μM test compound (no mark)”, the inhibition at 1.1 µM is 32%.
On to `CC(C)C[C@H](NC(=O)OC(C)(C)C)C(=O)N[C@H](Cc1c[nH]c2ccccc12)C(=O)N[C@H](C)C(=O)O` [Compound 41] (Boc-Leu-[dW]-[dA]-OH), for which, under “1.1 μM test compound (no mark)”, the inhibition at 1.1 µM is 65%.
